Calls of active or inactive are those of the source.
Assays:
Protein Wnt-3a = Protein Wnt-3a (Mus musculus, UniProt P27467); assay: SAR analysis of small molecule antagonists of Gli-SUFU in a Wnt3a luminescent reporter assay.; format: functional
[1] = target: SWI/SNF-related matrix-associated actin-dependent regulator of chromatin subfamily A member 2 (Homo sapiens, UniProt P51531); assay: Luminescence-based cell-based high throughput dose response assay to identify activators of the function of SWI/SNF related, matrix associated, actin dependent regulator of chromatin, subfamily a, member 2 (SMARCA2, BRM).; format: functional
[2] = Counterscreen for activators of the function of SWI/SNF related, matrix associated, actin dependent regulator of chromatin, subfamily a, member 2 (SMARCA2, BRM): Luminescence-based cell-based high throughput dose response assay to identify non-selective compounds using the VP16 reporter assay.; format: functional
Paired box protein Pax-8 = Paired box protein Pax-8 (Homo sapiens, UniProt Q06710); assay: PAX8 transcriptional activity inhibition in RMG-I – RMG-I cells, luciferase, cherry-pick, dose response (AID 687027); format: functional, cell-based;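 further: luciferase reporter driven by Pax8 target thyroperoxidase promoter measured by SteadyGlo luminescence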
[3] = general cell-killing toxicity readout – plate reader, dry powder samples, cytotoxicity control for PAX8 inhibitor project, dose response (AID 743021); format: functional, cell-based
[4] = CMV-driven luciferase expression suppression in HEK293 – cell-based, luminescence, dry powder, counter-screen for Pax8 inhibitor project, dose response (AID 743020); format: functional
[5] = reduction of Shn3 3'UTR-driven luciferase in osteoblasts – cell-based, Clone20 osteoblasts, firefly luciferase, cherry-picked, dose response (AID 624132); format: functional;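 further: firefly luciferase luminescence from reporter carrying the Shn3 3'UTR in osteoblasts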
[6] = target: ATP-binding cassette sub-family B member 6 (Homo sapiens, UniProt Q9NP58); assay: ABCB6 transporter inhibitors, porphyrin accumulation, dose response, flow cytometry, K562-ABCB6 cells, cherry pick 02 (AID 624487); format: functional; settings: read-out: EC50_MICROM
[7] = loss of viability in HepG2 cells – cell-based, CellTiter-Glo, cherry-picked, cytotoxicity control for Shn3 inhibitor project, dose response (AID 624134); format: functional
[8] = Fluorescence-based cell-based high throughput dose response assay for inhibitors of the interaction of nucleotide-binding oligomerization domain containing 2 (NOD2) and the receptor-interacting serine-threonine kinase 2 (RIPK2).; format: functional; settings: Homo sapiens
[9] = target: FAD-linked sulfhydryl oxidase ALR (Homo sapiens, UniProt P55789); assay: ALR-catalysed DTT oxidation blockers – biochemical, H2O2 detection, luminescence, cherry-pick, dose response (AID 493248)
HEK293 [10] = assay: cells; settings: Homo sapiens
Protein RecA = target: T1, Protein RecA (Mycobacterium tuberculosis, UniProt P9WHJ3); assay: Fluorescence Cell-Free Homogeneous Dose Retest to Identify Inhibitors of RecA-Intein Splicing Activity. [Related pubchem assays (depositor defined):AID2097, AID2223, AID489010, AID492950]; format: functional
T1 sequence (P9WHJ3 whole entry): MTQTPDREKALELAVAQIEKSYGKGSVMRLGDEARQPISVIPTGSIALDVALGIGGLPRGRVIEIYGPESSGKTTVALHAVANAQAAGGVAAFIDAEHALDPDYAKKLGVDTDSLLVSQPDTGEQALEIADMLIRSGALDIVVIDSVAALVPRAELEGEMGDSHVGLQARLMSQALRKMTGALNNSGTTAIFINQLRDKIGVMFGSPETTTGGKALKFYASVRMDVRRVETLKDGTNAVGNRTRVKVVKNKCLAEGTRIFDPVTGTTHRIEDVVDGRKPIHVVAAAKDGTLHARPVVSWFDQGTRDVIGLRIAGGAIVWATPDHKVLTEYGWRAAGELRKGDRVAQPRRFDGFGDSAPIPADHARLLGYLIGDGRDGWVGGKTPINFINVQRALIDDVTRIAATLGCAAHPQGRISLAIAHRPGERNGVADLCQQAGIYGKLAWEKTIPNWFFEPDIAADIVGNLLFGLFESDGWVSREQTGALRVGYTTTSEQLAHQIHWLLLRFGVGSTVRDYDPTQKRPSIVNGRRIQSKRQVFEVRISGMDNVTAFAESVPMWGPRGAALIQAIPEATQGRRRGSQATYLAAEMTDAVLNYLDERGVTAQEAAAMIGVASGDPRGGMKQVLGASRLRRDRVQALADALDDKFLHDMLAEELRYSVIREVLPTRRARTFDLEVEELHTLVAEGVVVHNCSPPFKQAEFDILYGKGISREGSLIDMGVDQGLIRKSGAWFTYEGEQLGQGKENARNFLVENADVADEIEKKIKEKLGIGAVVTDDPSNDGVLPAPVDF

[11] = target: T2, Heat shock factor protein 1 (Mus musculus, UniProt P38532); assay: enhancement of HSF1-driven luciferase signal – cell-based, NIH3T3, luminescence, dose retest, confirmation (AID 435004); format: functional;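 further: stress induced by proteasome inhibitor MG132 added 30 min after compound; luciferase reporter driven by HSF1 response element in NIH3T3 cells; actives raise luminescence as potentiators of the MG132 stress response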
T2 sequence (P38532 whole entry): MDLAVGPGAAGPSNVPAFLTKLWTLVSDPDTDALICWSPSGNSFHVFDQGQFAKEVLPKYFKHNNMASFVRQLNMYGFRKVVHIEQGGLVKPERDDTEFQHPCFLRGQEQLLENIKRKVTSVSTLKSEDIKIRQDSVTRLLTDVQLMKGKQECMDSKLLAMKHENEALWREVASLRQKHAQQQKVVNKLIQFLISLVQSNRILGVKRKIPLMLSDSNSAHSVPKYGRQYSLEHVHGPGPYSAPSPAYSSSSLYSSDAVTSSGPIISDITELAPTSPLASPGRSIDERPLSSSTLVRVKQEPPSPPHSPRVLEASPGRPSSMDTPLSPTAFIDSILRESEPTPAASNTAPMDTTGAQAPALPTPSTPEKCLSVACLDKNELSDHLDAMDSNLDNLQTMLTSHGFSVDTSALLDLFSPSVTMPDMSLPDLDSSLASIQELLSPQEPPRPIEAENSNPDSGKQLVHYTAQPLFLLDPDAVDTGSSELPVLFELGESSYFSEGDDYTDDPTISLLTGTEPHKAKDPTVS

[12] = target: T3, Replicative DNA helicase DnaB (Mycobacterium tuberculosis, UniProt P9WMR3); assay: DnaB intein splicing inhibitors, dose response, biochemical, cell-free fluorescence (AID 449749); format: functional
T3 sequence (P9WMR3 whole entry): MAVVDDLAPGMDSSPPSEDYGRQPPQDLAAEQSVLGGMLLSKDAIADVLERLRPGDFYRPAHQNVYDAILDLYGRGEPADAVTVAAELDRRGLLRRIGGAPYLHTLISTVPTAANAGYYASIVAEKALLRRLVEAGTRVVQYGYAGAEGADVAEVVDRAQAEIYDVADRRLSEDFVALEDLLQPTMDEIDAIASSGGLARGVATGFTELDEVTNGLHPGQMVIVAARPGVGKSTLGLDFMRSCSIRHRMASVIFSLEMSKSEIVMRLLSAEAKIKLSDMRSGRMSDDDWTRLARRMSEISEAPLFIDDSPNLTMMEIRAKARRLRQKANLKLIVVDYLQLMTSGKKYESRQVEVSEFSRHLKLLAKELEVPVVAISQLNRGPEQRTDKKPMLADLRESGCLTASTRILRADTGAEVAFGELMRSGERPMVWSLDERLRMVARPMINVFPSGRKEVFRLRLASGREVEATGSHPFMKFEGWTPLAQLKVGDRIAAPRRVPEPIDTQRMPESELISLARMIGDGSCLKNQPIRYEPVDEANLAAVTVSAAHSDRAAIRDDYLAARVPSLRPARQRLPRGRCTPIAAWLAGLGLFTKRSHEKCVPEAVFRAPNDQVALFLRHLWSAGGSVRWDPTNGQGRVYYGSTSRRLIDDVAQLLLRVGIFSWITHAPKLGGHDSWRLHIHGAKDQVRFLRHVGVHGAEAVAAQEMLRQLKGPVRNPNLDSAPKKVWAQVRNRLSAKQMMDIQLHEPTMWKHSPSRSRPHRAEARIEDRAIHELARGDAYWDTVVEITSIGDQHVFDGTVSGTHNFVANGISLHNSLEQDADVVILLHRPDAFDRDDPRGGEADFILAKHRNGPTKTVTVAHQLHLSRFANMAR

HEK293 [13] = assay: cells; settings: Homo sapiens; remark: listed apart in the source
[14] = non-specific 3'UTR reporter inhibition in Clone20-Shn3RL – cell-based, Renilla luciferase, cherry-picked, counter-screen for Shn3 inhibitor project, dose response (AID 624133); format: functional
[15] = target: Fructose-bisphosphate aldolase (Mycobacterium tuberculosis, UniProt P9WQA3); assay: Fluorescence-based biochemical high throughput dose response assay for inhibitors of the fructose-bisphosphate aldolase (FBA) of M. tuberculosis.; format: functional
Sequence of Fructose-bisphosphate aldolase (P9WQA3 whole entry): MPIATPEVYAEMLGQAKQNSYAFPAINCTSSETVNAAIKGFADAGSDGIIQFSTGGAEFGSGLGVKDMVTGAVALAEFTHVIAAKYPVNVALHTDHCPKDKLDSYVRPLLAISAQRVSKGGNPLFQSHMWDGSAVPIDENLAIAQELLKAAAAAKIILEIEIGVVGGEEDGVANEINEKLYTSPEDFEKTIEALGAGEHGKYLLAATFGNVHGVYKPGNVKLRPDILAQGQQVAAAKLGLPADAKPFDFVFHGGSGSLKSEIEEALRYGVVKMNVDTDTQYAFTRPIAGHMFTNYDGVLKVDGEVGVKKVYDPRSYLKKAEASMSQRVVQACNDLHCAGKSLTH

Sequence of SWI/SNF-related matrix-associated actin-dependent regulator of chromatin subfamily A member 2 (P51531 whole entry): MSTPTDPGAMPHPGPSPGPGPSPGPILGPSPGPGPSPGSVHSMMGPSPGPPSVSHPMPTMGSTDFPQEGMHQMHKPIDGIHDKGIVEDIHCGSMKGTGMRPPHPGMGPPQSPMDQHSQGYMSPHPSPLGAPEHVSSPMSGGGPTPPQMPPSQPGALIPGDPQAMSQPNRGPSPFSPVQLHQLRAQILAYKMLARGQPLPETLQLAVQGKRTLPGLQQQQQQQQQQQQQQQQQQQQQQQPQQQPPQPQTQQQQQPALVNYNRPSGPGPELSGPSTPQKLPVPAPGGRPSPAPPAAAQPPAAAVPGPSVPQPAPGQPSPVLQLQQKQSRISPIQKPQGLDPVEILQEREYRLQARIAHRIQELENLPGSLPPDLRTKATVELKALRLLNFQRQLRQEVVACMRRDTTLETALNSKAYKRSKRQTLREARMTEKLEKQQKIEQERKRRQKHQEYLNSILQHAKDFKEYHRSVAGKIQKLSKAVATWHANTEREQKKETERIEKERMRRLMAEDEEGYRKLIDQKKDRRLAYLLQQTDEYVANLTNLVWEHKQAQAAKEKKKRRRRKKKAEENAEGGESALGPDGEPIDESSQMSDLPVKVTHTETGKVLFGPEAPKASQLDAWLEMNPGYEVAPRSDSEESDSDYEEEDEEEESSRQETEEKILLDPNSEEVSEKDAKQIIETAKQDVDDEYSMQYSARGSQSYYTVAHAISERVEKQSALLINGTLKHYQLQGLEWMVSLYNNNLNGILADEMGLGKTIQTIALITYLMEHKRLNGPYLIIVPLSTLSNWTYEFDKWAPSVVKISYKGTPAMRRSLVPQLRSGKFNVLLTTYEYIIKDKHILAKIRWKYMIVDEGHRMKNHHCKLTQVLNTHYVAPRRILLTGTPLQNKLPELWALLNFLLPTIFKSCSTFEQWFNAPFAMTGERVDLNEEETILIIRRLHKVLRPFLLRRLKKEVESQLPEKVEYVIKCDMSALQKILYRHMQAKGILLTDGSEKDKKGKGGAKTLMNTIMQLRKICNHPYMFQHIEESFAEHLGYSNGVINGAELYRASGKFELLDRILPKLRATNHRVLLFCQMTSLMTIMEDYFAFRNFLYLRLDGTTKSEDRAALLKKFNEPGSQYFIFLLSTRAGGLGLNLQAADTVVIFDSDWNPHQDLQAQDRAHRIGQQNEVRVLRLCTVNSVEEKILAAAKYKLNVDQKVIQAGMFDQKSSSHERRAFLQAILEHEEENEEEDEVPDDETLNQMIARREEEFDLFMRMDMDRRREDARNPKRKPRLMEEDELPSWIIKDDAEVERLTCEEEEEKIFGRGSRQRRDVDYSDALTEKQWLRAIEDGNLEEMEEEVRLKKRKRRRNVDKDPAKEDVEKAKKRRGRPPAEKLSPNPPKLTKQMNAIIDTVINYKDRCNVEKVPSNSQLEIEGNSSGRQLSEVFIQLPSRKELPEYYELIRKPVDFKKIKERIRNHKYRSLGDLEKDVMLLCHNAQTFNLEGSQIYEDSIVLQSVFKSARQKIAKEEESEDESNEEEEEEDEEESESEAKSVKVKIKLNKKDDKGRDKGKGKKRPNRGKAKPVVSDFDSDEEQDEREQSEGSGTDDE
Sequence of FAD-linked sulfhydryl oxidase ALR (P55789 whole entry): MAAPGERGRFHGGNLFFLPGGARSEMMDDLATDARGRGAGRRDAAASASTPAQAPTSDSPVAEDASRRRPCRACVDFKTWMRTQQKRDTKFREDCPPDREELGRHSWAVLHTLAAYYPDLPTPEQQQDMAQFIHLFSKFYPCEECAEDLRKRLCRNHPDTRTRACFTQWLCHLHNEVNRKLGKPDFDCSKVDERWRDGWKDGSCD
Sequence of Paired box protein Pax-8 (Q06710 whole entry): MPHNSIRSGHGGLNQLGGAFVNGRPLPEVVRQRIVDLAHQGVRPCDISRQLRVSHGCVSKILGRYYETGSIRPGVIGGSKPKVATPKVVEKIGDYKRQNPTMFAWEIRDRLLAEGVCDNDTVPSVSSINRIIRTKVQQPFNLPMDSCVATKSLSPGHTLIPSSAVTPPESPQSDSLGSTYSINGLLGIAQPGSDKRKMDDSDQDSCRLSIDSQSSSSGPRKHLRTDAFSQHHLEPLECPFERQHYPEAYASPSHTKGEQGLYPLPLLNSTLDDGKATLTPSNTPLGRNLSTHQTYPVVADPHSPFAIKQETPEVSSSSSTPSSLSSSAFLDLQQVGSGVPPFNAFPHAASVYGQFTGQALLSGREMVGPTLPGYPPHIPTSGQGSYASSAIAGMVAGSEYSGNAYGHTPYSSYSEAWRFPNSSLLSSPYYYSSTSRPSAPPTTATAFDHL
Sequence of ATP-binding cassette sub-family B member 6 (Q9NP58 whole entry): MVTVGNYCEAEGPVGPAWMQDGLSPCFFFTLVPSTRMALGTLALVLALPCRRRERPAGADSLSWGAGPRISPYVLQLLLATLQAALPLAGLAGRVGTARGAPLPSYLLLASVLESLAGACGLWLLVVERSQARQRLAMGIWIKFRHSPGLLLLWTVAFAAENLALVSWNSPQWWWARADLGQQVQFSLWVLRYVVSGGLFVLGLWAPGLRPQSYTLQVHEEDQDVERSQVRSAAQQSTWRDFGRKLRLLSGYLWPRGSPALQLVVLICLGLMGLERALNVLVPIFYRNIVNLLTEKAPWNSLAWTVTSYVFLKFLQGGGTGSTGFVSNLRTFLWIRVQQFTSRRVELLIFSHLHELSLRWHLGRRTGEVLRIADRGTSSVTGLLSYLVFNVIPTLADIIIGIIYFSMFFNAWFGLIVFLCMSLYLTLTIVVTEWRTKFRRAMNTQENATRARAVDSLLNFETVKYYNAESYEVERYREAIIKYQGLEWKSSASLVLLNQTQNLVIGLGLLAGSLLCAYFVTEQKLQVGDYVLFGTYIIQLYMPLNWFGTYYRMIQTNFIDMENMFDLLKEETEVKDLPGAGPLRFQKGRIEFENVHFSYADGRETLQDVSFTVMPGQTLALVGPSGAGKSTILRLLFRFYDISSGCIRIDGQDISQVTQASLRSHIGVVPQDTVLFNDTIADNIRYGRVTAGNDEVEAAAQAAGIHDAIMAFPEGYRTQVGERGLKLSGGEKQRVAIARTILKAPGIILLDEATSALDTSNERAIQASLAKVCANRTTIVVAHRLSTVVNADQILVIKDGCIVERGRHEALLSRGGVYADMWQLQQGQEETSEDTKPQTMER
Sequence of Protein Wnt-3a (P27467 whole entry): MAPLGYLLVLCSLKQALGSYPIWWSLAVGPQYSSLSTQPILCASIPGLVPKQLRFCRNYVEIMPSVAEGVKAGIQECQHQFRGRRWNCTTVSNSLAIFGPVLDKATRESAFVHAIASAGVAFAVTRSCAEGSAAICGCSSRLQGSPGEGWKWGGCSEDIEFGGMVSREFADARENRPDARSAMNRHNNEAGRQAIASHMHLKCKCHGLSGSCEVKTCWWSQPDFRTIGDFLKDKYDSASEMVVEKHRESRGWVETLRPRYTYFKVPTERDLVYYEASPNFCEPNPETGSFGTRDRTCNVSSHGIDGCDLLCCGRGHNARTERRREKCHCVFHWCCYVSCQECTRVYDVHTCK

For N#Cc1ccc(C(=O)Nc2cc(N3CCCCC3)ncn2)cc1, the IC50 (Protein Wnt-3a) was > 21.8 µM (inactive).

In the case of COc1ccc(-c2nc(C#N)c(NCC3CCCO3)o2)cc1 (stereo not drawn), the EC50 [1] is reported as > 91.1 µM (inactive) and the EC50 [2] is reported as > 91.1 µM (inactive).

In the case of COc1ccccc1S(=O)(=O)N(C)C[C@H]1Oc2cc(C#CCC3CCCC3)ccc2S(=O)(=O)N([C@@H](C)CO)C[C@H]1C, the AC50 (Paired box protein Pax-8) is reported as 9.5 µM (active), the AC50 [3] is reported as 51.9 µM (active) and the AC50 [4] is reported as 55.2 µM (active).

With Cc1cccc(C)c1NC(=O)c1nc(S(=O)(=O)Cc2ccccc2)ncc1Cl the AC50 [5] was 4.33 µM (active), the EC50 [6] was 38.1 µM (active) and the AC50 [7] was 22.9 µM (active). The IC50 [8] was 4.11 µM (active), the AC50 [9] was 1.74 µM (active) and the EC50 (HEK293 [10]) was > 59.6 µM (inactive). The EC50 (Protein RecA) was 6.63 µM (active), the EC50 [11] was 9.13 µM (active) and the AC50 [12] was 4.34 µM (active). The EC50 (HEK293 [13]) was > 59.6 µM (inactive) and the AC50 [14] was 10.6 µM (active).

For Cc1ccc(-c2cnc(-c3ccccc3C(=O)O)o2)cc1, the IC50 [15] was 0.919 µM (active).

From ChEMBL document CHEMBL1201862, “PubChem BioAssay data set” (2004)
